Results on twelve compounds are retold here after US9738613B2, “Substituted 1,2,3-triazoles as antitumor agents” (National Central University, priority 2015, dated 2017).

One test concerns PC-3 cells. The experiment in a line: Sulforhodamine B (SRB) growth inhibition assay, PC-3 cells. The format is cell-based, Human. The protocol: (§1) Human hormone-refractory prostate cancer cell lines PC-3 and DU-145 were from American Type Culture Collection (Rockville, MD). Cells were cultured in RPMI 1640 medium with 10% FBS (v/v) and penicillin (100 U/ml)/streptomycin (100 μg/ml). Cultures were maintained in a humidified incubator at 37° C. in 5% CO2/95% air.
(§2) Cells were seeded in 96-well plates in medium with 5% FBS. After 24 hours, cells were fixed with 10% TCA to represent cell population at the time of drug addition (T0). After additional incubation of DMSO or the compound for 48 hours (PC-3 cells) or 72 hours (DU145 cells), cells were fixed with 10% TCA and SRB at 0.4% (w/v) in 1% acetic acid was added to stain cells. Unbound SRB was washed out by 1% acetic acid and SRB bound cells were solubilized with 10 mM Trizma base. The absorbance was read at a wavelength of 515 nm. Using the following absorbance measurements, such as time zero (T0), control growth (C), and cell growth in the presence of the compound (Tx), the percentage growth was calculated at each of the compound concentrations levels. Percentage growth inhibition was calculated as: [1−(Tx−T0)/(C−T0)]×100%. Growth inhibition of 50% (IC50) is determined at the compound concentration which results in 50% reduction of total protein increase in control cells during the compound incubation. Data are expressed as mean±SEM of three to five determinations.

The subject of another test is DU-145 cells. The experiment in a line: Sulforhodamine B (SRB) growth inhibition assay, DU-145 cells. The format is cell-based, Human. The procedure: as §1, §2
Where [1] appears, read: Homo sapiens, PC-3 cells, 48 hours, bound stated, read-out: IC50 in PC-3 cells (text summary of Table 1).
[2] abbreviates: human hormone-refractory prostate cancer PC-3 cells, 48 hours incubation, read-out: PC-3 cells IC50.
Where [3] appears, read: human hormone-refractory prostate cancer DU-145 cells, 72 hours incubation, read-out: DU-145 cells IC50.
Setting [4] is: Homo sapiens, DU-145 cells, 72 hours, bound stated, read-out: IC50 in DU-145 cells (text summary of Table 1).

pIC50: −log10 of the molar value. Where a name gives a salt, the structure may show the parent alone. Read-outs that look alike come from different tables or passages of the source. Bounds are passed on as bounds.

As to `CCCCCCCCCCCCCCCCCCn1cc(CC(N)(C(=O)OCC)C(=O)OCC)nn1` [Compound 7, Diethyl 2-amino-2-((1-octadecyl-1H-1,2,3-triazol-4-yl)methyl)malonate hydrochloride], the pIC50 with PC-3 cells (setting [1]) is > 5.00; with PC-3 cells (setting [2]), 5.10; in the test with DU-145 cells (setting [3]), < 5.00.

Regarding `CCCCCCCCCCCCCCCCCCn1cc(CC(N)(CO)CO)nn1` [Compound 3, 2-Amino-2-((1-octadecyl-1H-1,2,3-triazol-4-yl)methyl)propane-1,3-diol hydrochloride], the pIC50 was > 5.30 with PC-3 cells (setting [1]), 5.35 in the test with PC-3 cells (setting [2]), > 5.00 in the test with DU-145 cells (setting [4]) and 5.24 with DU-145 cells (setting [3]).

For `CCCCCCCCCCCCCCCCCCCCn1cc(CC(N)(CO)CO)nn1` [Compound 8, 2-Amino-2-((1-icosyl-1H-1,2,3-triazol-4-yl)methyl)propane-1,3-diol hydrochloride], the negative logarithm of the IC50 (pIC50) with PC-3 cells (setting [1]) was > 5.30; in the test on PC-3 cells (setting [2]) it was 5.42; with DU-145 cells (setting [4]), > 5.00; with DU-145 cells (setting [3]), 5.21.

As to `CCCCCCCCCCCCCCn1cc(CCCC(N)(CO)CO)nn1` [Compound 9, 2-Amino-2-(3-(1-tetradecyl-1H-1,2,3-triazol-4-yl)propyl)propane-1,3-diol hydrochloride], the pIC50 in the test with PC-3 cells (setting [1]) was > 5.30; with PC-3 cells (setting [2]), 5.38; with DU-145 cells (setting [4]), > 5.00; in the test on DU-145 cells (setting [3]), 5.27.

In the case of `CCCCCCCCCCCCCCCCn1cc(CC(N)(CO)CO)nn1` [Compound 2, 2-Amino-2-((1-hexadecyl-1H-1,2,3-triazol-4-yl)methyl)propane-1,3-diol hydrochloride], the pIC50 is > 5.30 in the test with PC-3 cells (setting [1]), 5.48 in the test with PC-3 cells (setting [2]), > 5.00 with DU-145 cells (setting [4]) and 5.28 with DU-145 cells (setting [3]).

For the compound `CCCCCCCCCCCCCCCCCCn1cc(CCC(N)(CO)CO)nn1` [Compound 4, 2-Amino-2-(2-(1-octadecyl-1H-1,2,3-triazol-4-yl)ethyl)propane-1,3-diol hydrochloride], the negative-log IC50 (pIC50) is > 5.30 in the test with PC-3 cells (setting [1]), 5.44 with PC-3 cells (setting [2]), > 5.30 with DU-145 cells (setting [4]) and 5.62 in the test with DU-145 cells (setting [3]).

On to `CCCCCCCCCCCCCn1cc(CC(N)(CO)CO)nn1` [Compound 11, 2-Amino-2-((1-tridecyl-1H-1,2,3-triazol-4-yl)methyl)propane-1,3-diol hydrochloride], for which the negative-log IC50 (pIC50) in the test on PC-3 cells (setting [1]) was > 5.00; with PC-3 cells (setting [2]), 5.27; with DU-145 cells (setting [4]) it was > 5.30; in the test on DU-145 cells (setting [3]), 5.38.

On to `CCCCCCCCCCCCCCn1cc(CC(N)(CO)CO)nn1` [Compound 1, 2-Amino-2-((1-tetradecyl-1H-1,2 ,3-triazol-4-yl)methyl)propane-1,3-diol hydrochloride], for which the pIC50 in the test with PC-3 cells (setting [1]) was > 5.30; in the test on PC-3 cells (setting [2]) it was 5.31; in the test with DU-145 cells (setting [4]), > 5.30; in the test with DU-145 cells (setting [3]), 5.33.

Regarding “2-Amino-2-((1-pentadecyl-1H-1,2,3-triazol-4-yOmethyl)propane-1,3-diol hydrochloride [Compound 5]”, in the test with PC-3 cells (setting [2]), the negative-log IC50 (pIC50) was 5.46.

For `CCCCCCCCCCCCCCCCCCCCn1cc(CC(CO)(COC)NC)nn1` (stereo not shown) [Compound 12, 3-(1-Icosyl-1H-1,2,3-triazol-4-yl)-2-(methoxymethyl)-2-(methylamino)propan-1-ol], the pIC50 with PC-3 cells (setting [1]) was > 5.30; with PC-3 cells (setting [2]), 5.52; in the test with DU-145 cells (setting [4]) it was > 5.30; in the test on DU-145 cells (setting [3]), 5.33.

Turning to “2-Amino-2-(4-(1-tetradecyl-1H-1,2,3-triazol-4-yl)butyl)propane-1,3-diol hydrochloride [Compound 10]”, the negative logarithm of the IC50 (pIC50) in the test on PC-3 cells (setting [2]) is 5.05; with DU-145 cells (setting [3]), 5.21.

Take `CCCCCCCCCCCCCCCCn1cc(CCC(N)(CO)CO)nn1` [Compound 6, 2-Amino-2-(2-(1-hexadecyl-1H-1,2,3-triazol-4-yl)ethyl)propane-1,3-diol hydrochloride]: the results for the negative logarithm of the IC50 (pIC50) in the test with PC-3 cells (setting [1]) and in the test with PC-3 cells (setting [2]) were > 5.00 and 5.21, respectively.

Broadly, the pIC50 is −log10 of the IC50, conventionally taken in molar units.
